# Article PMC10661964 (Current Drug Metabolism, 2023)
# Where “and” joins values, the source holds several entries; their conditions need not be identical. Equal entries are not always repeated. Where two headings read alike, the source gives them in different places.
# How the values were obtained:
# [1] = cited from earlier work
# [2] = Quantification of nifurtimox and metabolites in human plasma (LC-HRMS), plasma PK; assay type: in vivo; conditions: fed
# Method: Plasma samples from timepoints 0, 0.25, 0.5, 0.75, 1, 1.5, 2, 2.5, 3, 4, 6, 8, 12, 15, and 24 h from 6 patients were analyzed. Blood samples were collected into lithium heparinized tubes. Blood cells and plasma were then separated by centrifugation, and the plasma was stored frozen until needed. For the analysis, plasma samples were thawed at room temperature and homogenized by vortex mixing. Equal volumes of plasma from the six patients for each timepoint were combined to a pooled volume of 200 µL. To precipitate protein, a 3-fold volume of acetonitrile/0.5% formic acid (v/v in water) was added to each pooled sample which was thoroughly mixed and then centrifuged at 20,000 g. […] For all analytes, the analytical precision ranged from 0.1% to 8.8%, and the accuracy was 95% to 108%.
# [3] = Plasma PK of total radioactivity, [14C]-nifurtimox and metabolites after oral dosing (HPLC-LSC); assay type: in vivo; conditions: male Wistar rats
# Method: (§1) Animals were housed in suitable metabolism cages. […] Blood cells and plasma were separated by centrifugation. Plasma was stored at ≤-15°C prior to analysis. […] All biological samples were weighed immediately. […] The remaining carcass was also wet-weighed.
# Aliquots of individual plasma samples were pooled separately for each timepoint by equal volume. For protein precipitation, pooled plasma was treated with a three-fold volume of acetonitrile. Samples were homogenized and precipitated by centrifugation (20,000 g, 5 min). Samples were concentrated and analyzed using high-performance liquid chromatography (HPLC) with off-line radioactivity detection by LSC (HPLC-LSC).
# CYP 1A2 = assay: CYP induction (mRNA and CYP activity); assay type: in vitro ADME, human
# Source text: (§2) The inhibition of cytochrome P450 (CYP) isoforms and a range of cellular transporters (except multidrug and toxin extrusion [MATE] proteins), as well as the induction of CYP isoforms were investigated using previously described methods.
# CYP 2B6 = assay: CYP induction (mRNA and CYP activity); assay type: in vitro ADME, human
# Source text: as §2
# CYP 3A4 = assay: CYP induction (mRNA and CYP activity); assay type: in vitro ADME, human
# Source text: as §2
# [4] = Stability study: metabolite profiles in snap-frozen plasma and urine at early timepoints after oral [14C]-nifurtimox; assay type: in vivo, male Wistar rats; conditions: for share of sample radioactivity in plasma / share of sample radioactivity in urine: oral 2.5 mg/kg, snap-frozen
# Method: as §1
# The combined supernatant was analyzed directly using HPLC-LSC.
# [5] = Quantification of nifurtimox and metabolites in rat plasma after a single high dose (200 mg/kg); assay type: in vivo, Wistar rats; conditions: Wistar, rat, plasma, po, 200 mg/kg
# Method: Blood cells and plasma were then separated by centrifugation, and the plasma was stored at ≤-15°C until required. For analysis, plasma samples were thawed at room temperature and homogenized by vortex mixing. Plasma samples were pooled separately for male and female rats by combining 25 µL from each of the 4 animals for each timepoint. […] To each pooled plasma (100 µL), calibration, or control sample, 300 µL of an internal standard solution containing [^2H8]-nifurtimox (500 ng/mL) and [^2H3]-M-6 (2500 ng/mL) in acetonitrile + 0.5% formic acid in water (v/v) was added and mixed thoroughly. All samples were then centrifuged (20,000 g, 5 min) to precipitate the protein. The supernatant was analyzed using a 1290 Infinity LC system equipped with a diode array detector and an Orbitrap Q-Exactive Plus HRMS (Thermo Fisher Scientific, Bremen, Germany) with a heated electrospray ionization source. […] The mobile phase gradient was: 0 min, 0% B; 2.5 min, 0% B; 3 min, 20% B; 8 min, 45% B; 9 min, 90% B; 10.1 min, 90% B; 12 min, 0% B; 13 min, 0% B. The following HRMS parameters were used: mass range, 120-200 Da (0-2.5 min) and 230-600 Da (2.5-13 min) in full scan mode; resolution, 280,000; ion source voltage, 3500 V; capillary temperature, 300°C; source temperature, 60°C.
# The calibration was based on the relative peak area as a function of concentration obtained by linear regression. […] Thus, all concentrations in μg/mL were back-calculated to nmol/mL. The PK parameters for each analyte were calculated using ToxKin software, as described above.
# in vitro = conditions: rat, plasma
# [6] = Mass balance and metabolite profiling in excreta after oral [14C]-nifurtimox in intact rats; conditions: for component excreted in urine, oral dosing: intact male Wistar rats, 2.5 mg/kg oral; for component excreted in urine, oral dosing / radioactivity excreted in urine / radioactivity excreted in feces: up to 120 h, 2.5 mg/kg
# Method: (§3) After an adaption period, the animals were prepared for the study. Bile duct cannulation was performed on selected animals the day before their use in experiments.
# (§4) In a mass balance study (n = 5) and a PK study (n = 2 per timepoint), 2.5 mg/kg b.w. […] For i.v. administration, 2.5 mg/kg b.w. […] In an additional stability study, male Wistar rats (n = 3 per timepoint) were administered 2.5 mg/kg b.w. […] The total radioactivity concentration in the dosage form was confirmed by liquid scintillation counting (LSC).
# (§5) Animals were housed in suitable metabolism cages. Blood was collected from separate rats at 0.25, 0.5, 1, 1.5, 2, 3, 5, and 8 h post-dose and stored in lithium heparinized tubes. Blood cells and plasma were separated by centrifugation. Plasma was stored at ≤-15°C prior to analysis. […] At the end of the study, the cages were rinsed with water, and samples were collected. All biological samples were weighed immediately. Feces samples were homogenized with water to obtain a uniform radioactivity distribution. All samples were stored deep-frozen at ≤-15/-70°C before further processing. During the necropsy, selected organs and tissues were collected and wet-weighed. The remaining carcass was also wet-weighed. The carcass and all tissues were homogenized and stored at room temperature prior to processing for analysis. In the stability study, blood and urine were collected at 0.25 and 0.5 h post-dose. Plasma and urine were immediately frozen in liquid nitrogen and stored at -80°C to prevent degradation. The total radioactivity in samples and tissues was determined by LSC after appropriate sample preparation.
# (§6) Aliquots of individual urine or bile samples were pooled separately for each time interval by equal volume and analyzed using HPLC-LSC. Aliquots of individual feces samples were pooled separately for each time interval, ensuring that each aliquot contained the same amount of radioactivity. The pooled samples were extracted twice with a mixture of acetonitrile/water (80:20 v/v, 2 x 0.5 mL). The resulting suspensions were centrifuged (20,000 g, 5 min), and the supernatants were then combined for each time interval, concentrated, and subjected to HPLC-LSC.
# (§7) The amount of total radioactivity in urine, feces, bile, and tissues was determined by multiplying the volume or weight of the samples by the respective total radioactivity concentration. The amount of radioactivity recovered in the excreta (AE), cage wash, and tissues was compared with the administered radioactive dose to establish the radioactive balance. Cumulative excretion was calculated as the sum of the excretion for each collection interval. Arithmetic means and coefficients of variation (CV) were calculated for these percentages. During metabolite profiling, the concentration or amount of each analyte for each sample and timepoint or interval was calculated by multiplying the total radioactivity concentration or amount excreted of each sample with the percent area of each analyte obtained after HPLC-LSC separation.
# [7] = Mass balance and metabolite profiling in excreta after i.v. [14C]-nifurtimox in bile duct-cannulated (BDC) rats; assay type: in vivo, male Wistar rats; conditions: for component excreted in bile, i.v. dosing / administered dose secreted directly into the gut / dose excreted in feces / dose present in the gastrointestinal tract including contents: 2.5 mg/kg; for administered dose secreted directly into the gut: gastrointestinal tract + feces
# Method: as §1
# [8] = within 2-3 days of oral or i.v. dosing in rats and dogs; cited from earlier work
# [9] = rat, in vivo, 2.5 mg/kg
# Method: as §3, §4, §5, §6, §7
# [10] = oral, Medenwald et al. and seven healthy volunteers
# [11] = single oral 2.5 mg/kg [14C]-nifurtimox, pooled plasma
# [12] = total radioactivity, oral 2.5 mg/kg, intact rats
# [13] = total radioactivity, oral 2.5 mg/kg, intact rats, listed as [^14C]-nifurtimox
# [14] = BDC male Wistar rats, 2.5 mg/kg i.v., up to 24 h
# [15] = total radioactivity, i.v. 2.5 mg/kg, BDC rats
# [16] = total radioactivity, i.v. 2.5 mg/kg, BDC rats, 24 h
# [17] = total radioactivity, i.v. 2.5 mg/kg, BDC rats, 24 h, listed as [^14C]-nifurtimox
# [18] = total radioactivity, i.v. 2.5 mg/kg, BDC rats, 24 h, listed as [14C]-nifurtimox
structure (smiles),measurement,setting,value
"CC1CS(=O)(=O)CCN1/N=C/c1ccc([N+](=O)[O-])o1 (stereo not shown) [Nifurtimox, (E)-N-(3-methyl-1,1-dioxo-1,4-thiazinan-4-yl)-1-(5-nitrofuran-2-yl) methanimine, reference compound]","tmax, patients who had eaten before dosing",[1]; Phase 1 food-effect PK study,4 h
same,Tmax,[1]; [10],2 to 3 h
same,average elimination half-life (t½),[1]; [10],approximately 3 hours
same,AUC greater in fed compared to fasting patients,"[1]; same nifurtimox dose, Phase 1 food-effect study",70%
same,AUC(tlast-∞) (extrapolated proportion),"[2]; pooled plasma of 6 patients, single oral 120 mg nifurtimox",0.6%
same,"AUC, % of total quantified exposure","[2]; sum of AUC of nifurtimox and M-1 to M-6 = 100%, single oral 120 mg",16.9%
same,t½,"[3]; single oral 2.5 mg/kg [14C]-nifurtimox, plasma, interval up to 8 h, 2.5 mg/kg",1.44 h
same,AUC,[3]; [11],1730 µg-eq*h/L
same,AUC(0-8),[3]; [11],1680 µg-eq*h/L
same,AUC(0-tn),[3]; [11],1570 µg-eq*h/L
same,Cmax,[3]; [11],755 µg-eq/L
same,tn (time of last quantifiable concentration),[3]; [11],5 h
same,half-life,"[3]; male, Wistar, rat, plasma, po, 2.5 mg/kg, single oral 2.5 mg/kg [14C]-nifurtimox, plasma, interval up to 8 h, read-out: t½ (converted)",1.4 h
same,Tmax,"[3]; rat, single oral 2.5 mg/kg [14C]-nifurtimox, pooled plasma",0.5 h
same,tmax of radioactivity,"[3]; total radioactivity, oral 2.5 mg/kg",0.5 h
same,concentration up to which no induction (mRNA and CYP activity),CYP 1A2,up to 30000 µg/L
same,concentration up to which no induction (mRNA and CYP activity),CYP 2B6,up to 30000 µg/L
same,concentration up to which no induction (mRNA and CYP activity),CYP 3A4,up to 30000 µg/L
same,share of sample radioactivity in plasma,[4]; 0.25 h post-dose,81.5 % of sample radioactivity
same,share of sample radioactivity in urine,[4]; 0.25 h post-dose,11 % of sample radioactivity
same,share of sample radioactivity in plasma,[4]; 0.5 h post-dose,72.5 % of sample radioactivity
same,share of sample radioactivity in urine,[4]; 0.5 h post-dose,4 % of sample radioactivity
same,stability in plasma,[4]; authors' conclusion from plasma profiles,appears to be stable in plasma
same,AUC(0-t),"[5]; female, read-out: AUC(0–24), female animals",117 µM·h
same,AUC,"[5]; female, read-out: AUC, female animals",121 µM·h
same,Cmax,"[5]; female, read-out: Cmax, female animals",18.3 µM
same,Tmax,"[5]; female, read-out: tmax, female animals",1 h
same,half-life,"[5]; female, read-out: t½, female animals (converted)",5 h
same,AUC(0-t),"[5]; male, read-out: AUC(0–24), male animals",138 µM·h
same,AUC,"[5]; male, read-out: AUC, male animals",184 µM·h
same,Cmax,"[5]; male, read-out: Cmax, male animals",10.1 µM
same,Tmax,"[5]; male, read-out: tmax, male animals",2 h
same,half-life,"[5]; male, read-out: t½, male animals (converted)",5 h
same,fraction unbound,in vitro,0.621
same,"component excreted in urine, oral dosing",[6],0.117 % of the administered dose
same,"component excreted in urine, oral dosing",[6]; listed as [^14C]-nifurtimox,0.1 % of the administered dose
same,"component excreted in urine, oral dosing",[6]; listed as nifurtimox,< 1 % of the administered dose
same,share of sample radioactivity in urine,"[6]; pooled urine 0-8 h post-dose, oral 2.5 mg/kg",0.3 % of sample radioactivity
same,"total recovery including excreta, residues, and cage wash","[6]; total radioactivity, 120 h after oral dosing",97.3%
same,administered radioactivity excreted within 24 h,[6]; [12],approximately 86%
same,radioactivity excreted within 120 h (urine + feces),[6]; [12],92.4 % of dose
same,radioactivity excreted in urine,[6]; [12],48.6 % of dose
same,radioactivity excreted in feces,"[6]; total radioactivity, oral 2.5 mg/kg, intact rats, listed as [14C]-nifurtimox",43.8 % of dose
same,radioactivity excreted in feces,[6]; [13],43.8 % of dose and 49 % of dose
same,radioactivity excreted in urine,[6]; [13],48.6 % of dose and 44 % of dose
same,"component excreted in urine, i.v. dosing",[7]; [14],0.847 % of the administered dose
same,"component excreted in bile, i.v. dosing",[7]; [14],0.560 % of the administered dose
same,"component excreted in bile, i.v. dosing","[7]; BDC male Wistar rats, 2.5 mg/kg i.v., up to 24 h, listed as nifurtimox",0.6 % of the administered dose
same,administered dose excreted in bile within 24 h,[7]; [15],17.7%
same,administered dose excreted in urine within 24 h,[7]; [15],49.6%
same,recovery of administered radioactivity at 24 h,[7]; [15],94.2%
same,dose in residues (body excluding the GIT),[7]; [16],17.6%
same,dose in the cage wash,[7]; [16],2.48%
same,administered dose secreted directly into the gut,[7]; [16],< 7%
same,administered dose secreted directly into the gut,[7]; [17],6.9%
same,dose excreted in feces,[7]; [18],2.45%
same,dose present in the gastrointestinal tract including contents,[7]; [18],4.45%
same,dose excreted in feces,[7]; [17],2.5%
same,dose present in the gastrointestinal tract including contents,[7]; [17],4.5%
same,administered radioactivity detected in urine,[8],40-50%
same,"component excreted in feces, oral dosing",[9],No unchanged drug was detected
